The values that follow come from patent publication US7750003B2, “Compounds-943” (AstraZeneca AB, priority 2006, dated 2010).

The term IC50 denotes the concentration at which inhibition is half-maximal.

Sequence of recombinant mTOR (FLAG-tagged, residues 1362-2549) (P42345 1362-2549): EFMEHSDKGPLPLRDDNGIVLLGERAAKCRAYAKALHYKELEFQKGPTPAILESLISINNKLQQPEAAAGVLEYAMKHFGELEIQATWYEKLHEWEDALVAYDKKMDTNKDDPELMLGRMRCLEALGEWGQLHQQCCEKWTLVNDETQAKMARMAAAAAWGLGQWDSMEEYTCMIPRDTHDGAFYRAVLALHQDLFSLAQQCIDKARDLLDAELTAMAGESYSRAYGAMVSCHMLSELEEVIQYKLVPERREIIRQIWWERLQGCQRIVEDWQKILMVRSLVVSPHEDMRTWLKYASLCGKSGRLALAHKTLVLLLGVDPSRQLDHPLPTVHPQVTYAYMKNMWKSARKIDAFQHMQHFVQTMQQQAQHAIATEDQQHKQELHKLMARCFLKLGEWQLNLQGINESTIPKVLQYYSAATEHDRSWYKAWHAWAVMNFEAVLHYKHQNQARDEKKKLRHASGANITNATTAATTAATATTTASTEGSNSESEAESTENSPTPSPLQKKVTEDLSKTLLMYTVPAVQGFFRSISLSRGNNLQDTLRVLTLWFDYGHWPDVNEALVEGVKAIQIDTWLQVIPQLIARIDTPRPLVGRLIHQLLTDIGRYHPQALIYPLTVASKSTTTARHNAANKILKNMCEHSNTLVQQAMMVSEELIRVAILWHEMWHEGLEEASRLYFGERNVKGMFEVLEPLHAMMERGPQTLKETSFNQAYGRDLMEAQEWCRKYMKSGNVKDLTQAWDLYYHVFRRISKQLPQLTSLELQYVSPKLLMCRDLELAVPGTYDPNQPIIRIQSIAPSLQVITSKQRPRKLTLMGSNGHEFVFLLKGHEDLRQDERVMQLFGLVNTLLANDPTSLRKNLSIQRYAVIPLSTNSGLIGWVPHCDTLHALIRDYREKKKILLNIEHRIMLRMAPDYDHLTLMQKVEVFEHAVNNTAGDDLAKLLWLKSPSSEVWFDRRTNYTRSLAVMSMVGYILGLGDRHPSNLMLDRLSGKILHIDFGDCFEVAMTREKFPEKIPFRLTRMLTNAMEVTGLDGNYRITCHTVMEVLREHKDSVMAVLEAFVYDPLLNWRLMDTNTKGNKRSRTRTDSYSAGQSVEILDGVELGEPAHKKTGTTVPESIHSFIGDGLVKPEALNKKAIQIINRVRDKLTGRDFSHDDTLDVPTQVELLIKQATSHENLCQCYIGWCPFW

For this experiment, the target named is recombinant mTOR (FLAG-tagged, residues 1362-2549) (Homo sapiens, UniProt P42345). The experiment in a line: In vitro mTOR kinase assay (Test (a), AlphaScreen). It counts as biochemical. Particulars: ATP 20 μM, read-out: Test (a): IC50 versus mTOR kinase. On the procedure:
(a) In Vitro mTOR Kinase Assay
Following expression in the mammalian HEK293 cell line, expressed protein was purified using the FLAG epitope tag using standard purification techniques.
Aliquots (2 μl) of each compound dilution were placed into a well of a Greiner 384-well low volume (LV) white polystyrene plate (Greiner Bio-one).
These assay solutions were incubated for 2 hours at room temperature.
The resultant signals arising from laser light excitation at 680 nm were read using a Packard Envision instrument.
The phosphorylated biotinylated peptide that is associated with AlphaScreen Streptavidin donor beads forms a complex with the p70 S6 Kinase (T389) 1A5 Monoclonal Antibody that is associated with Alphascreen Protein A acceptor beads. Upon laser light excitation at 680 nm, the donor bead: acceptor bead complex produces a signal that can be measured. Accordingly, the presence of mTOR kinase activity results in an assay signal. In the presence of an mTOR kinase inhibitor, signal strength is reduced.
mTOR enzyme inhibition for a given test compound was expressed as an IC50 value.
(In Alpha technology, singlet oxygen from a donor bead excites a nearby acceptor bead.)
Regarding `CC(C)S(=O)(=O)Cc1cc(N2CCOC[C@@H]2C)nc(-c2ccc(NC(=O)N(C)C)cc2)n1` [Example 14, 1,1-Dimethyl-3-[4-[4-[(3S)-3-methylmorpholin-4-yl]-6-(propan-2-ylsulfonylmethyl)pyrimidin-2-yl]phenyl]urea], the 50% inhibitory concentration (IC50) was found to be 420 nM.
As for `C[C@H]1COCCN1c1cc(CS(=O)(=O)c2ccccc2)nc(-c2ccc(NC(=O)N(C)C)cc2)n1` [Example 15, 3-[4-[4-(Benzenesulfonylmethyl)-6-[(3S)-3-methylmorpholin-4-yl]pyrimidin-2-yl]phenyl]-1,1-dimethyl-urea], the figure is 1000 nM; as for `CC(=O)NCCS(=O)(=O)Cc1cc(N2CCOC[C@@H]2C)nc(-c2ccc(NC(=O)N(C)C)cc2)n1` [Example 16, N-[2-[[2-[4-(Dimethylcarbamoylamino)phenyl]-6-[(3S)-3-methylmorpholin-4-yl]pyrimidin-4-yl]methylsulfonyl]ethyl]acetamide], 4000 nM.
The same measure for `C[C@H]1COCCN1c1cc(CS(=O)(=O)CC(N)=O)nc(-c2ccc(NC(=O)N(C)C)cc2)n1` [Example 17, 2-[[2-[4-(Dimethylcarbamoylamino)phenyl]-6-[(3S)-3-methylmorpholin-4-yl]pyrimidin-4-yl]methylsulfonyl]acetamide]: 1100 nM.
For the molecule `CNC(=O)Nc1ccc(-c2nc(CO)cc(N3CCOC[C@@H]3C)n2)cc1` [Example 18, 1-[4-[4-(Hydroxymethyl)-6-[(3S)-3-methylmorpholin-4-yl]pyrimidin-2-yl]phenyl]-3-methyl-urea], the 50% inhibitory concentration (IC50) was determined as 120 nM.
In the case of `CNC(=O)Nc1ccc(-c2nc(CS(=O)(=O)C3CCCCC3)cc(N3CCOC[C@@H]3C)n2)cc1` [Example 19, 1-[4-[4-(Cyclohexylsulfonylmethyl)-6-[(3S)-3-methylmorpholin-4-yl]pyrimidin-2-yl]phenyl]-3-methyl-urea], the half-maximal inhibitory concentration (IC50) amounted to 250 nM.
The same measure for `CNC(=O)Nc1ccc(-c2nc(CS(=O)(=O)c3ccccc3)cc(N3CCOC[C@@H]3C)n2)cc1` [Example 19a, 1-[4-[4-(benzenesulfonylmethyl)-6-[(3S)-3-methylmorpholin-4-yl]pyrimidin-2-yl]phenyl]-3-methyl-urea]: 4.7 nM; for `CNC(=O)Nc1ccc(-c2nc(CS(=O)(=O)c3ccc(F)cc3)cc(N3CCOC[C@@H]3C)n2)cc1` [Example 19b, 1-[4-[4-[(4-fluorophenyl)sulfonylmethyl]-6-[(3S)-3-methylmorpholin-4-yl]pyrimidin-2-yl]phenyl]-3-methyl urea]: 33 nM.
As for `CNC(=O)Nc1ccc(-c2nc(CS(=O)(=O)c3ccc(NC(C)=O)cc3)cc(N3CCOC[C@@H]3C)n2)cc1` [Example 19c, N-[4-[[2-[4-(methylcarbamoylamino)phenyl]-6-[(3S)-3-methylmorpholin-4-yl]pyrimidin-4-yl]methylsulfonyl]phenyl]acetamide], the figure is 22 nM.
As for `CNC(=O)Nc1ccc(-c2nc(CS(=O)(=O)C(C)C)cc(N3CCOC[C@@H]3C)n2)cc1` [Example 19d, 3-methyl-1-[4-[4-[(3S)-3-methylmorpholin-4-yl]-6-(propan-2-ylsulfonylmethyl)pyrimidin-2-yl]phenyl]urea], the figure is 66 nM.
Regarding `CNC(=O)Nc1ccc(-c2nc(CS(=O)(=O)CCO)cc(N3CCOC[C@@H]3C)n2)cc1` [Example 19e, 1-[4-[4-(2-hydroxyethylsulfonylmethyl)-6-[(3S)-3-methylmorpholin-4-yl]pyrimidin-2-yl]phenyl]-3-methyl-urea], the IC50 was 11 nM.
The same measure for `CNC(=O)Nc1ccc(-c2nc(CS(=O)(=O)c3ccccc3)cc(N3CCOCC3)n2)cc1` [Example 20, 3-[4-[4-(Benzenesulfonylmethyl)-6-morpholin-4-yl-pyrimidin-2-yl]phenyl]-1-methyl-urea]: 43 nM.
The same measure for `CCNC(=O)Nc1ccc(-c2nc(CS(=O)(=O)c3ccccc3)cc(N3CCOCC3)n2)cc1` [Example 20a, 3-[4-[4-(benzenesulfonylmethyl)-6-morpholin-4-yl-pyrimidin-2-yl]phenyl]-1-ethyl-urea]: 150 nM; for `O=C(Nc1ccc(-c2nc(CS(=O)(=O)c3ccccc3)cc(N3CCOCC3)n2)cc1)NC1CC1` [Example 20b, 1-[4-[4-(benzenesulfonylmethyl)-6-morpholin-4-yl-pyrimidin-2-yl]phenyl]-3-cyclopropyl-urea]: 170 nM.
As for `CN(C)CCNC(=O)Nc1ccc(-c2nc(CS(=O)(=O)c3ccccc3)cc(N3CCOCC3)n2)cc1` [Example 20c, 3-[4-[4-(benzenesulfonylmethyl)-6-morpholin-4-yl-pyrimidin-2-yl]phenyl]-1-(2-dimethylaminoethyl)urea], the IC50 was 1000 nM.
As for `CN1CCC(NC(=O)Nc2ccc(-c3nc(CS(=O)(=O)c4ccccc4)cc(N4CCOCC4)n3)cc2)CC1` [Example 20d, 3-[4-[4-(benzenesulfonylmethyl)-6-morpholin-4-yl-pyrimidin-2-yl]phenyl]-1-(1-methyl-4-piperidyl)urea], the figure is 1600 nM; as for `COCCNC(=O)Nc1ccc(-c2nc(CS(=O)(=O)c3ccccc3)cc(N3CCOCC3)n2)cc1` [Example 20e, 3-[4-[4-(benzenesulfonylmethyl)-6-morpholin-4-yl-pyrimidin-2-yl]phenyl]-1-(2-methoxyethyl)urea], 2100 nM; as for `CCNC(=O)Nc1ccc(-c2nc(CS(=O)(=O)c3ccccc3)cc(N3CCOC[C@@H]3C)n2)cc1` [Example 20f, 3-[4-[4-(benzenesulfonylmethyl)-6-[(3S)-3-methylmorpholin-4-yl]pyrimidin-2-yl]phenyl]-1-ethyl-urea], 35 nM.
As for `C[C@H]1COCCN1c1cc(CS(=O)(=O)c2ccccc2)nc(-c2ccc(NC(=O)NC3CC3)cc2)n1` [Example 20g, 1-[4-[4-(benzenesulfonylmethyl)-6-[(3S)-3-methylmorpholin-4-yl]pyrimidin-2-yl]phenyl]-3-cyclopropyl-urea], the figure is 39 nM; as for `C[C@H]1COCCN1c1cc(CS(=O)(=O)c2ccccc2)nc(-c2ccc(NC(=O)NCCN(C)C)cc2)n1` [Example 20h, 1-[4-[4-(benzenesulfonylmethyl)-6-[(3S)-3-methylmorpholin-4-yl]pyrimidin-2-yl]phenyl]-3-(2-dimethylaminoethyl)urea], 440 nM; as for `C[C@H]1COCCN1c1cc(CS(=O)(=O)c2ccccc2)nc(-c2ccc(NC(=O)NC3CCN(C)CC3)cc2)n1` [Example 20i, 1-[4-[4-(benzenesulfonylmethyl)-6-[(3S)-3-methylmorpholin-4-yl]pyrimidin-2-yl]phenyl]-3-(1-methyl-4-piperidyl)urea], 700 nM.
The same measure for `COCCNC(=O)Nc1ccc(-c2nc(CS(=O)(=O)c3ccccc3)cc(N3CCOC[C@@H]3C)n2)cc1` [Example 20j, 1-[4-[4-(benzenesulfonylmethyl)-6-[(3S)-3-methylmorpholin-4-yl]pyrimidin-2-yl]phenyl]-3-(2-methoxyethyl)urea]: 750 nM.
Regarding `CNC(=O)Nc1ccc(-c2nc(CS(=O)(=O)C(C)C)cc(N3CCOCC3)n2)cc1` [Example 20k, 3-methyl-1-[4-[4-morpholin-4-yl-6-(propan-2-ylsulfonylmethyl)pyrimidin-2-yl]phenyl]urea], the IC50 was 36 nM.
Turning to `CCNC(=O)Nc1ccc(-c2nc(CS(=O)(=O)C(C)C)cc(N3CCOCC3)n2)cc1` [Example 20l, 1-ethyl-3-[4-[4-morpholin-4-yl-6-(propan-2-ylsulfonylmethyl)pyrimidin-2-yl]phenyl]urea], the IC50 came to 74 nM.
